The record followed here is patent US20240343699A1, “DERIVATIVES OF SUBSTITUTED MORPHOLINES AND USES THEREOF” (Supernus Pharmaceuticals, Inc., priority 2023, published 2024).

Structures are written as SMILES. “Also recorded” adds a separate entry of the source. Like-named read-outs stand apart in the source and are kept apart here.

The test system of one data set is human red blood cells. Kind of data set: Hemolysis in human blood. The class given is cell-based. Here is the method: Stability of Test Articles at Different pH Values. 10 mM stock solutions of COMPOUND A were prepared in DMSO. From this stock solution, a single concentration in a 10 μL aliquot was added to three fluid matrices: SGF at pH 2.0 (gastric), SIF at pH 6.0 (upper intestine), and PBS at 7.4 (systemic). The final volume was 1 mL (0.1 mM). The preparations were then incubated at 37° C. and samples were collected at 0, 15, 30, 60, and 120 min for analysis of parent material by LC/MS/MS. The collected sample was quenched in acetonitrile/0.1% formic acid mixture. Red Blood Cell (RBC): Human and rat blood were centrifuged to separate out red blood cells at […] for 15 min. The upper plasma level was aspirated with a micropipette and placed in a bleach solution for disposal. The RBC pellet was resuspended in sterile isotonic saline. The pellet was gently resuspended by rocking the tube. […]
(§1) Stability in Human and Rat Red Blood cells and Hemolysis. […] After centrifugation, 70 μL of supernatant (without disturbing the pellet) was transferred to a clean and clear polystyrene flat bottomed 96-well plate and the absorbance of the sample at a single wavelength was measured using a Bio Tech Synergy Hl Plate Reader at a wavelength of 410 nm. […] Stability was measured by measuring loss of parent compound using LC/MS/MS.

A further data set concerns rat red blood cells. Kind of data set: Hemolysis in rat blood. The class given is cell-based. The protocol:
Stability of Test Articles at Different pH Values. 10 mM stock solutions of COMPOUND A were prepared in DMSO. From this stock solution, a single concentration in a 10 μL aliquot was added to three fluid matrices: SGF at pH 2.0 (gastric), SIF at pH 6.0 (upper intestine), and PBS at 7.4 (systemic). The final volume was 1 mL (0.1 mM). The preparations were then incubated at 37° C. and samples were collected at 0, 15, 30, 60, and 120 min for analysis of parent material by LC/MS/MS. The collected sample was quenched in acetonitrile/0.1% formic acid mixture. Red Blood Cell (RBC): Human and rat blood were centrifuged to separate out red blood cells at […] for 15 min. The upper plasma level was aspirated with a micropipette and placed in a bleach solution for disposal. The RBC pellet was resuspended in sterile isotonic saline. The pellet was gently resuspended by rocking the tube. The sample was then centrifuged again to collect the RBC pellet and then resuspended and washed one more time following the same procedure. A total of three was done. Following the last wash and centrifugation, the RBCs were resuspended with PBS; and mixed by inversion. Aliquots of the resuspended and washed RBCs were then placed into 4 reaction tubes. These tubes were centrifuged to collect the RBCs. The fluid level was marked on each tube, then the supernatant was aspirated off and the cells resuspended with room temperature PBS pH 7.4 to the original mark. An aliquot of the RBC suspension was added to four sterile tubes containing PBS pH 7.4 at room temperature.
as §1

Data set [1] is described as follows: PK after single PO administration of COMPOUND A.
Another data set has as its system sleep/wake and cataplexy. In kind it is in vivo, male DTA mice.
Data set [2] can be described thus: Stability in human gut microbiota (fecal matter). The class given is in vitro ADME. The following applies: pH 6 and 7.4, all time points. The protocol: Stability in Rat and Human Gut Microbiota. Rat fecal material was obtained and weighed. One capsule of the raw probiotics was crushed and weighed prior to use. The weighed samples were then solubilized in PBS at pH 6.0 and 7.4 to extract microorganisms. The samples were centrifuged at 18,000×g for 10 min to remove particulates and the supernatant was used to evaluate test article stability. An aliquot (50 μL) of the COMPOUND A stock solution was added to the fecal extract (final concentration 0.5 mM) and allowed to incubate at 37° C. Aliquots were collected at 0, 15, 30, 60, and 120 min and analyzed by LC/MS/MS to determine stability of the parent molecule. The collected sample was quenched in acetonitrile/0.1% formic acid mixture.

[3] abbreviates: COMPOUND A 30, 90 and 120 mg/kg, first 6 h.
[4] abbreviates: COMPOUND A 90 and 120 mg/kg, ZT19-ZT24.
[5] abbreviates: COMPOUND A 90 and 120 mg/kg, first 6 h.
The mark [6] stands for this setting: all concentrations of COMPOUND A, first 6 h.

For `CCOc1ccccc1OC[C@@H]1CN(C(=O)OC(C)OC(=O)[C@@H](N)C(C)C)CCO1` (stereo partly drawn) [COMPOUND A], in the data set with human red blood cells (human blood, 25, 50, 100 μM, 1 hr), the “hemolysis (% RBC lysis)” value is given as “no detectable hemolysis”. Further, the “EC50 (% RBC lysis)” value in the data set on human red blood cells (human blood, 60 min exposure) is reported as “outside the concentration range tested”. In addition, the “hemolysis (% RBC lysis)” value in the data set with rat red blood cells (rat blood, 25, 50, 100 μM, 1 hr) is “no detectable hemolysis”. For the same molecule, the “EC50 (% RBC lysis)” value in the data set with rat red blood cells (rat blood, 60 min exposure) was “outside the concentration range tested”. Moreover, the “Clinical observation (tolerability)” value in data set [1] (60 or 120 mg/kg PO) is on record as “well tolerated”. The “enantiomer R(+)-VLX in plasma” value in data set [1] (COMPOUND A 60 or 120 mg/kg PO, LLOQ 1.5 ng/mL) is “not detectable at most time points”. Moreover, the “plasma concentration of the derivative itself” value in data set [1] (COMPOUND A 60 or 120 mg/kg PO, LLOQ 3 ng/mL) was “not detectable; also recorded: below LLOQ in all the samples collected”. For the same molecule, the “W and NREM (hourly, cumulative and total time)” value with sleep/wake and cataplexy (COMPOUND A 30 mg/kg, ZT19-ZT24) is “W increased overall (treatment effect) and NREM decreased overall”. The “C levels during ZT24” value in the data set on sleep/wake and cataplexy (COMPOUND A 120 mg/kg) is listed as “approximately half of vehicle levels”. In the data set with sleep/wake and cataplexy (COMPOUND A 120 mg/kg, ZT19-ZT24), the “NREM (hourly, cumulative and total time)” value was “NREM increased overall”. The “latency to REM” value with sleep/wake and cataplexy (COMPOUND A 10, 30, 90, 120 mg/kg p.o., first 6 h of dark period) is reported as “increased the latency to REM”. In the data set with sleep/wake and cataplexy (setting [3]), the “number of C bouts” value is “the number of C bouts decreased overall”, the “total NREM time” value is “total NREM time increased” and the “total time in C (cataplexy)” value is reported as “total time in C decreased”. Also, the “REM and C during the 6-h recording” value in the data set with sleep/wake and cataplexy (COMPOUND A 90 and 120 mg/kg) is reported as “practically eliminated”. For the same molecule, in the data set with sleep/wake and cataplexy (setting [4]), the “REM:NR ratios” value is “REM:NR ratios decreased” and the “latency to REM” value is listed as “The latency to REM increased”. For the same molecule, in the data set on sleep/wake and cataplexy (setting [5]), the LMA entry is given as “LMA decreased overall” and the “Total W time” value was “Total W time decreased”. Moreover, the “C (cataplexy)” value in the data set with sleep/wake and cataplexy (COMPOUND A two highest concentrations, ZT19-ZT24) is recorded as “significantly decreased”. For the same molecule, in the data set with sleep/wake and cataplexy (setting [6]), the “NREM alpha, beta and high gamma EEG power” value is listed as “decreased overall”; the “total time in REM” value was “decreased total time in REM”. In the data set with sleep/wake and cataplexy (all test conditions, first 6 h), the “REM:NR ratios” value is listed as “REM:NR ratios decreased”. Further, in data set [2], the “amount of parent compound in human fecal matter” value is ~100%.
